{
  "source": "patent US20170291905A1",
  "about": "“ARGININE […] INHIBITORS AND USES THEREOF” (Epizyme, Inc., priority 2014, published 2017)",
  "data": [
    {"target": "T1, PRMT1 (Homo sapiens, UniProt Q99873)", "T1 construct": "host or cells: RKO cells", "T1 sequence (Q99873 whole entry)": "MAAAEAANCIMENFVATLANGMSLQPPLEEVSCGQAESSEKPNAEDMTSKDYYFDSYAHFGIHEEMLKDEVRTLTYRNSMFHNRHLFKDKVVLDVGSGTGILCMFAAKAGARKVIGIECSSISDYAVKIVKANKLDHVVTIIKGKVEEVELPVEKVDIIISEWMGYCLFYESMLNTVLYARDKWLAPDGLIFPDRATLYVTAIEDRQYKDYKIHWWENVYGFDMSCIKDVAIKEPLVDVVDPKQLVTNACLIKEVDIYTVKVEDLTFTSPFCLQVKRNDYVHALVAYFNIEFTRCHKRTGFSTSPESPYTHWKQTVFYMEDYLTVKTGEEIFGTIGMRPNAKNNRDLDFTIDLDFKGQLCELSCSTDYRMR", "test": "RKO methylation assay, In Cell Western (ICW) for mono-methyl arginine and DNA content", "assay_type": "cell-based", "settings": "RKO cells, 72 hours, mono-methyl arginine signal normalised to DRAQ5, percent activation", "from_the_text": "RKO Methylation Assay RKO adherent cells were purchased from ATCC (American Type Culture Collection), Manassas, Va., USA. DMEM/Glutamax medium, penicillin-streptomycin, heat inactivated fetal bovine serum, 0.05% trypsin and D-PBS were purchased from Life Technologies, Grand Island, N.Y., USA. Odyssey blocking buffer, 800CW goat anti-rabbit IgG (H+L) antibody, and Licor Odyssey infrared scanner were purchased from Licor Biosciences, Lincoln, Nebr., USA. Mono-methyl arginine antibody was purchased from Cell Signaling Technology, Danvers, Mass., USA. Methanol was purchased from VWR, Franklin, Mass., USA. 10% Tween 20 was purchased from KPL, Inc., Gaithersburg, Md., USA. DRAQ5 was purchased from Biostatus Limited, Leicestershire, UK. RKO adherent cells were maintained in growth medium (DMEM/Glutamax medium supplemented with 10% v/v heat inactivated fetal bovine serum and 100 units/mL penicillin-streptomycin) and cultured at 37° C. under 5% CO2. Cell Treatment, in Cell Western (ICW) for Detection of Mono-Methyl Arginine and DNA Content. RKO cells were seeded in assay medium at a concentration of 20,000 cells per mL to a poly-D-lysine coated 384 well culture plate (BD Biosciences 356697) with 50 μL per well. Compound (100 nL) from a 96-well source plate was added directly to 384 well cell plate. Plates were incubated at 37° C., 5% CO2 for 72 hours. After three days of incubation, plates were brought to room temperature outside of the incubator for ten minutes and blotted on paper towels to remove cell media. 50 μL of ice cold 100% methanol was added directly to each well and incubated for 30 min at room temperature. After 30 min, plates were transferred to a Biotek EL406 plate washer and washed 2 times with 100 μL per well of wash buffer (1×PBS). Next 60 μL per well of Odyssey blocking buffer (Odyssey Buffer with 0.1% Tween 20 (v/v)) were added to each plate and incubated 1 hour at room temperature. Blocking buffer was removed and 20 μL per well of primary antibody was added (mono-methyl arginine diluted 1:200 in Odyssey buffer with 0.1% Tween 20 (v/v)) and plates were incubated overnight (16 hours) at 4° C. Plates were washed 5 times with 100 μL per well of wash buffer. Next 20 μL per well of secondary antibody was added (1:200 800CW goat anti-rabbit IgG (H+L) antibody, 1:1000 DRAQ5 (Biostatus limited) in Odyssey buffer with 0.1% Tween 20 (v/v)) and incubated for 1 hour at room temperature. The plates were washed 5 times with 100 μL per well wash buffer then 2 times with 100 μL per well of water. Plates were allowed to dry at room temperature then imaged on the Licor Odyssey machine which measures integrated intensity at 700 nm and 800 nm wavelengths. Both 700 and 800 channels were scanned. […] Each plate included fourteen control wells of DMSO only treatment (minimum activation) as well as fourteen control wells for maximum activation treated with 20 μM of a reference compound. The average of the ratio values for each control type was calculated and used to determine the percent activation for each test well in the plate. Reference compound was serially diluted three-fold in DMSO for a total of nine test concentrations, beginning at 20 μM. Percent activation was determined and EC30 curves were generated using triplicate wells per concentration of compound.", "units": {"PRMT1 RGG ICW EC30": "nM"}, "values": [
      {"smiles": "CNCCN(C)Cc1c[nH]nc1C1CCC(CO)(CO)CC1", "note": "[compound 44, (4-(4-((methyl(2-(methylamino)ethyl)amino)methyl)-1H-pyrazol-3-yl)cyclohexane-1,1-diyl)dimethanol]", "PRMT1 RGG ICW EC30": ">5000"},
      {"smiles": "CCOCCOCC1(COCCOCC)CCC(c2n[nH]cc2CN(C)CCNC)CC1", "note": "[compound 39, N1-((3-(4,4-bis((2-ethoxyethoxy)methyl)cyclohexyl)-1H-pyrazol-4-yl)methyl)-N1,N2-dimethylethane-1,2-diamine]", "PRMT1 RGG ICW EC30": 1388},
      {"smiles": "CN(C)CCN(C)Cc1c[nH]nc1[C@H]1CC[C@]2(CC1)CC(C)(C)CO2", "note": "[compound 43, N1-((3-((5r,8r)-3,3-dimethyl-1-oxaspiro[4.5]decan-8-yl)-1H-pyrazol-4-yl)methyl)-N1,N2,N2-trimethylethane-1,2-diamine]", "PRMT1 RGG ICW EC30": 622.8},
      {"smiles": "CC[C@H]1CC[C@@H](c2n[nH]cc2CN(C)CCNC)CC1", "note": "[compound 1]", "PRMT1 RGG ICW EC30": 83.01},
      {"smiles": "CNCCN(C)Cc1ccnn1[C@H]1CC[C@@]2(CC1)CC(C)(C)CO2", "note": "[compound 49, N1-((1-((5s,8s)-3,3-dimethyl-1-oxaspiro[4.5]decan-8-yl)-1H-pyrazol-5-yl)methyl)-N1,N2-dimethylethane-1,2-diamine]", "PRMT1 RGG ICW EC30": 111.3},
      {"smiles": "CCC1(CC)C[C@]2(CC[C@H](c3n[nH]cc3CN(C)CCNC)CC2)NC1=O", "note": "[compound 47, (5s,8s)-3,3-diethyl-8-(4-((methyl(2-(methylamino)ethyl)amino)methyl)-1H-pyrazol-3-yl)-1-azaspiro[4.5]decan-2-one]", "PRMT1 RGG ICW EC30": 367.1},
      {"smiles": "CNCCN(C)Cc1c[nH]nc1C1CCC(COCC2CC2)(COCC2CC2)CC1", "note": "[compound 41, N1-((3-(4,4-bis((cyclopropylmethoxy)methyl)cyclohexyl)-1H-pyrazol-4-yl)methyl)-N1,N2-dimethylethane-1,2-diamine]", "PRMT1 RGG ICW EC30": 67.48},
      {"smiles": "CNCCN(C)Cc1c[nH]nc1C1=CCC2(CC1)CC(C)(C)CO2", "note": "(centres unmarked) [compound 46, N1-((3-(3,3-dimethyl-1-oxaspiro[4.5]dec-7-en-8-yl)-1H-pyrazol-4-yl)methyl)-N1,N2-dimethylethane-1,2-diamine]", "PRMT1 RGG ICW EC30": 185.1},
      {"smiles": "CCC1(CC)C[C@]2(CC[C@@H](c3n[nH]cc3CN(C)CCNC)CC2)NC1=O", "note": "[compound 48, (5r,8r)-3,3-diethyl-8-(4-((methyl(2-(methylamino)ethyl)amino)methyl)-1H-pyrazol-3-yl)-1-azaspiro[4.5]decan-2-one]", "PRMT1 RGG ICW EC30": ">5000"},
      {"smiles": "CNCCN(C)Cc1c[nH]nc1C1CCC(COCCC2CCOCC2)(COCCC2CCOCC2)CC1", "note": "[compound 40]", "PRMT1 RGG ICW EC30": 458.5},
      {"smiles": "CN(C)CCN(C)Cc1c[nH]nc1[C@H]1CC[C@@]2(CC1)CC(C)(C)CO2", "note": "[compound 42, N1-((3-((5S,8S)-3,3-dimethyl-1-oxaspiro[4.5]decan-8-yl)-1H-pyrazol-4-yl)methyl)-N1,N2,N2-trimethylethane-1,2-diamine]", "PRMT1 RGG ICW EC30": 51.41}
    ]}
  ]
}
